From patent US11607378B2, “Cosmetic composition comprising amide-based compound” (Neopharm Co., Ltd., priority 2020, dated 2023)

Columns and labels:
[1] = tested on: reactive oxygen species (ROS) in dermal fibroblasts; experiment: Effect of removing reactive oxygen species (ROS), DCF-DA fluorescence image; format: cell-based, human; details: blue light 40 J/cm^2, sample 100 μM, 24 hours, DCF-DA (FIG. 2)
Protocol: An effect of removing the reactive oxygen species was determined for the samples of Examples and Comparative Examples of the present invention.
An image analysis for generation of reactive oxygen species (ROS) in the cells was carried out by seeding 1×10^5 (100 μL/well) dermal fibroblasts in a 12-well plate to which a cover slip was attached. The dermal fibroblasts were exposed to blue light of 40 J/cm^2, and then treated with each of the samples (100 μM) of Examples and Comparative Examples. Then, the cells were additionally cultured at 37° C. for 24 hours.
After 24 hours, 100 μM DCF-DA was put into each well, and the cells were cultured at 37° C. for 45 minutes. After the cells were washed with PBS, the stained cells were put on a microscope slide containing a mounting medium. A microscopic image was observed as a fluorescent microscopic image.

p16^INK4A = experiment: Expression level of p16^INK4A by Western blot after blue light; format: cell-based; details: human dermal fibroblasts, blue light 40 J/cm^2, sample 100 μM, 24 hours, Western blot (FIG. 1)
Protocol: (1) An expression level of p16^INK4A was determined through Western blot in Examples and Comparative Examples of the present invention.
Specifically, human dermal fibroblasts were cultured in a 12-well plate containing a Dulbecco's modified eagle medium (DMEM) medium supplemented with 10% fetal bovine serum (FBS) to attach 1.5×10^5 (1 mL/well) human dermal fibroblasts to the 12-well plate. The human dermal fibroblasts were cultured for 24 hours, and the medium was replaced with a 1% fetal bovine serum medium. Then, the human dermal fibroblasts were exposed to blue light of 40 J/cm^2, and then treated with each of the samples (100 μM) of Examples and Comparative Examples. Thereafter, the cells were additionally cultured at 37° C. for 24 hours. Then, the cells were recovered, and each of these samples was subjected to Western blot to analyze an expression level of p16^INK4A in the dermal fibroblasts. Each of samples of Examples 1 and 2 and Comparative Example 1 including the amide-based compound having a structure shown in the following Table 1 was used as the sample.
The control of FIG. 1 represents an experimental group in which the cells were not treated with the sample, and (-) represents a result of the experimental group exposed to blue light.

[2] = tested on: superoxide dismutase (SOD); experiment: Effect on antioxidant activity (Superoxide Dismutase Activity Assay kit) after blue light; format: cell-based, human; details: dermal fibroblasts, blue light 40 J/cm^2, sample 100 μM, 48 hours (FIG. 3)
Protocol: Effects of the samples of Examples and Comparative Examples of the present invention on a change in antioxidant activity after irradiation with blue light were confirmed.
Specifically, 1.5×10^5 (1 mL/well) dermal fibroblasts were seeded in a 6-well plate, and cultured for 24 hours. The dermal fibroblasts were exposed to blue light of 40 J/cm^2, and then treated with each of the samples (100 μM) of Examples and Comparative Examples. After 48 hours, the cells were recovered. The cells were dissolved in a cell lysis buffer (pH 7.4) containing 0.1 M Tris/HCl, 0.5% Triton X-100, 5 mM β-ME, and 0.1 mg/ml PMSF, and a supernatant separated by centrifugation was then analyzed using a Superoxide Dismutase Activity Assay kit (ab65354). Then, the absorbance was measured at a wavelength of 450 nm in a microplate reader.

[3] = tested on: carbonylated protein in artificial skin (EpiDermFT); experiment: Effect on generation of carbonylated protein in artificial skin (DNPH assay, ICC staining); format: cell-based; details: sample 0.3% 50 μL, blue light 40 J/cm^2, 48 hours, image J quantification (FIG. 4)
Protocol: An artificial skin (EpiDermFT™ from MatTek, Ashland, USA) was purchased, and then stabilized for 18 hours in an exclusive medium (EFT-400). 50 μL of each of the samples of Examples and Comparative Examples was applied to the artificial skin at a concentration of 0.3%, and then cultured for an hour. The artificial skin was exposed to blue light of 40 J/cm^2. After 48 hours, the artificial skin tissue was fixed in 10% formaldehyde, and embedded into paraffin. Thereafter, the tissue was microtomed into sections with a size of […]. Then, the microtomed tissue was used to confirm an effect on a change in activity of the carbonylated protein.
The tissue was stained by a DNPH assay using an immunocytochemical (ICC) staining method, and then observed in a fluorescent microscopic image. Thereafter, the microscopic image was digitized using an image J program.

CCCCC(CC)C(=O)NC(CO)CO (centres unmarked) [Comparative Example 1, N-(1,3-dihydroxypropan-2-yl)-2-ethylhexanamide, reference compound]
inhibiting the generation of reactive oxygen species and removing the generated reactive oxygen species [1]: did not exhibit a significant effect | expression level of p16^INK4A (p16^INK4A): 120%

CCCCC(C)C(=O)NCCO (centres unmarked) [Example 2, N-(2-hydroxyethyl)-2-methyl-hexanamide]
SOD activity (which had been reduced by 32.64% by blue light) [2]: 92.3% | expression level of p16^INK4A (p16^INK4A): 53.9% | carbonylated protein (which had increased by 72.04% by blue light) [3]: 16.67%
